Measured values from ChEMBL document CHEMBL6177953, “Discovery of a novel quinoxaline derivative modulator via a dual P53/TLR2 targeting strategy for the alleviation of radiation damage” (Eur J Med Chem, 2025).
Active and inactive are the calls of the source. The calls are words filed in the database; no cut-off is given here.

Key:
AHH-1 [1] = experiment: Cytotoxicity against human AHH-1 cells incubated for 24 to 96 hrs by CCK-8 assay; type: functional, cell-based
AHH-1 [2] = experiment: Antiradiation activity in human AHH-1 cells assessed as increase in cell viability at 2.5 to 10 micromol/L pre-treated with compound for 24 hrs followed by irradiation at 4 Gy measured after 24 hrs by CCK-8 assay; type: functional, cell-based; settings: dose 2.5-10 µmol/L, time 48.0 hrs
AHH-1 [3] = experiment: Antiradiation activity in human AHH-1 cells assessed as increase in cell viability at 2.5 to 10 micromol/L pre-treated with compound for 24 hrs followed by irradiation at 6 Gy measured after 24 hrs by CCK-8 assay; type: functional, cell-based; settings: dose 2.5-10 µmol/L, time 48.0 hrs
AHH-1 [4] = experiment: Antiradiation activity in human AHH-1 cells assessed as increase in cell viability at 2.5 to 10 micromol/L pre-treated with compound for 24 hrs followed by irradiation at 8 Gy measured after 24 hrs by CCK-8 assay; type: functional, cell-based; settings: dose 2.5-10 µmol/L, time 48.0 hrs
[5] = Cytotoxicity against HUVEC incubated for 24 to 96 hrs by CCK-8 assay; type: toxicity, cell-based; settings: human, HUVEC cells
Mus musculus [6] = experiment: Radioprotective activity in male C57BL/6J mouse assessed as survival rate at 100 mg/kg, ip pre-treated with compound for 24.25 hrs followed by irradiation at 8.5 Gy and measured for 30 days post irradiation relative to control; type: functional; settings: time 744.25 hrs
Mus musculus [7] = experiment: Radioprotective activity in male C57BL/6J mouse assessed as increase in body weight at 100 to 300 mg/kg, ip pre-treated with compound for 24.25 hrs followed by irradiation at 8.5 Gy and measured on day 18 post irradiation; type: functional, organism-based; settings: dose 100-300 mg/kg, time 456.25 hrs
Mus musculus [8] = experiment: Radioprotective activity in male C57BL/6J mouse assessed as survival rate at 300 mg/kg, ip pre-treated with compound for 24.25 hrs followed by irradiation at 8.5 Gy and measured for 30 days post irradiation relative to control; type: functional; settings: time 744.25 hrs
Mus musculus [9] = experiment: Radioprotective activity in male C57BL/6J mouse assessed as increase in cell growth at 250 to 300 mg/kg, ip pre-treated with compound for 24.25 hrs followed by irradiation at 6.5 Gy and measured on 30 day post irradiation; type: functional, organism-based; settings: dose 250-300 mg/kg, time 744.25 hrs
AHH-1 [10] = experiment: Induction of apoptosis in human AHH-1 cells assessed as viable cells pre-treated with compound for 24 hrs followed by irradiation at 6 Gy and measured after 24 hrs by Annexin V-FITC/PI staining based Flow cytometry analysis (reference value: 83.6%); type: functional; settings: time 48 hrs
AHH-1 [11] = experiment: Induction of apoptosis in human AHH-1 cells assessed as early apoptotic cells pre-treated with compound for 24 hrs followed by irradiation at 6 Gy and measured after 24 hrs by Annexin V-FITC/PI staining based Flow cytometry analysis (reference value: 8.15%); type: functional; settings: time 48 hrs
AHH-1 [12] = experiment: Induction of apoptosis in human AHH-1 cells assessed as late apoptotic cells pre-treated with compound for 24 hrs followed by irradiation at 6 Gy and measured after 24 hrs by Annexin V-FITC/PI staining based Flow cytometry analysis (reference value: 2.65%); type: functional; settings: time 48 hrs
AHH-1 [13] = experiment: Induction of apoptosis in human AHH-1 cells assessed as necrotic cells pre-treated with compound for 24 hrs followed by irradiation at 6 Gy and measured after 24 hrs by Annexin V-FITC/PI staining based Flow cytometry analysis (reference value: 5.37%); type: functional; settings: time 48 hrs
HUVEC [14] = experiment: Antiradiation activity in human HUVEC assessed as cell viability at 5 to 20 micromol/L pre-treated with compound for 24 hrs followed by irradiation at 6 Gy measured after 96 hrs by CCK-8 assay; type: functional, cell-based; settings: dose 5-20 µmol/L, time 120.0 hrs
Mus musculus [15] = experiment: Radioprotective activity in male C57BL/6J mouse assessed as survival rate at 250 mg/kg, ip pre-treated with compound for 24.25 hrs followed by irradiation at 8.5 Gy and measured for 30 days post irradiation relative to control; type: functional; settings: time 744.25 hrs
HUVEC [16] = experiment: Antiradiation activity in human HUVEC assessed as cell viability at 5 to 20 micromol/L pre-treated with compound for 24 hrs followed by irradiation at 8 Gy measured after 96 hrs by CCK-8 assay; type: functional, cell-based; settings: dose 5-20 µmol/L, time 120.0 hrs

| SMILES | IC50 (AHH-1 [1]) | Activity (AHH-1 [2]) | Activity (AHH-1 [3]) | Activity (AHH-1 [4]) | other results |
| --- | --- | --- | --- | --- | --- |
| COc1ccc(CSc2cnc3ccccc3n2)cc1 | > 60 µM | Active | Active | Active | – |
| [O-][S+](Cc1ccccc1)c1cnc2cc(Cl)ccc2n1 (stereo not drawn) | 6.28 µM | – | – | – | – |
| Cc1ccc(CSc2cnc3ccccc3n2)cc1 | > 60 µM | Active | Active | Active | – |
| O=S(=O)(Cc1ccc(F)cc1)c1cnc2cc(Cl)ccc2n1 | 6.32 µM | Active | Active | Active | – |
| Brc1ccc(CSc2cnc3ccccc3n2)cc1 | 8.9 µM | Active | Active | Active | – |
| [O-][S+](Cc1ccc(Cl)cc1)c1cnc2cc(Cl)ccc2n1 (stereo not drawn) | 11.2 µM | – | – | – | – |
| O=C(O)c1ccc(CS(=O)(=O)c2cnc3cc(Cl)ccc3n2)cc1 | 22.4 µM | Active | Active | Active | IC50 [5]: > 60 µM; Activity (Mus musculus [6]): 50%; Activity (Mus musculus [7]): Active |
| O=C([O-])c1ccc(/C=C/S(=O)(=O)Cc2ccc(Cl)cc2)cc1.[Na+] [RECILISIB SODIUM] | 39.6 µM | Active | Active | Active | IC50 [5]: > 60 µM; Activity (Mus musculus [8]): 20%; Activity (Mus musculus [7]): Active; Activity (Mus musculus [9]): Active; Activity (AHH-1 [10]): 66.6%; Activity (AHH-1 [11]): 19.2%; Activity (AHH-1 [12]): 8.65%; Activity (AHH-1 [13]): 5.5% |
| Clc1ccc(CSc2cnc3ccccc3n2)cc1 | 16.6 µM | Active | Active | Active | – |
| O=S(=O)(Cc1ccc(Br)cc1)c1cnc2cc(Cl)ccc2n1 | 15.5 µM | Active | Active | Active | – |
| O=S(=O)(Cc1ccc(Cl)cc1)c1cnc2cc(Br)ccc2n1 | > 60 µM | – | – | – | – |
| [O-][S+](Cc1ccc(F)cc1)c1cnc2ccccc2n1 (stereo not drawn) | > 60 µM | Active | Active | Active | – |
| O=S(=O)(Cc1ccc(Cl)cc1)c1cnc2cc(Cl)ccc2n1 | 18.6 µM | – | – | – | – |
| COc1ccc(CSc2cnc3cc(Br)ccc3n2)cc1 | 39.5 µM | Active | Active | Active | – |
| [O-][S+](Cc1ccc(F)cc1)c1cnc2cc(Cl)ccc2n1 (stereo not drawn) | 5.23 µM | – | – | – | – |
| O=S(=O)(Cc1ccccc1)c1cnc2cc(Cl)ccc2n1 | 6.27 µM | – | – | – | – |
| O=S(=O)(Cc1ccc(Cl)cc1)c1cnc2ccccc2n1 | 5.56 µM | – | – | – | – |
| O=S(=O)(Cc1ccc(Br)cc1)c1cnc2ccccc2n1 | > 60 µM | Active | Active | Active | – |
| Cc1ccc(CSc2cnc3cc(Br)ccc3n2)cc1 | 11.3 µM | – | – | – | – |
| O=S(=O)(Cc1ccc(F)cc1)c1cnc2ccccc2n1 | > 60 µM | – | – | – | – |
| O=C(O)c1ccc(CS(=O)(=O)c2cnc3ccccc3n2)cc1 | > 60 µM | Active | Active | Active | – |
| O=C(O)c1ccc(CSc2cnc3cc(Cl)ccc3n2)cc1 | > 60 µM | Active | Active | Active | – |
| [O-][S+](Cc1ccc(F)cc1)c1cnc2cc(Br)ccc2n1 (stereo not drawn) | > 60 µM | – | – | – | – |
| Clc1ccc(CSc2cnc3cc(Br)ccc3n2)cc1 | 3.03 µM | – | – | – | – |

| SMILES | IC50 (AHH-1 [1]) | Activity (AHH-1 [2]) | Activity (AHH-1 [3]) | Activity (AHH-1 [4]) | other results |
| --- | --- | --- | --- | --- | --- |
| N#Cc1ccc(C[S+]([O-])c2cnc3cc(Cl)ccc3n2)cc1 (stereo not drawn) | 4.59 µM | – | – | – | – |
| COc1ccc(CSc2cnc3cc(Cl)ccc3n2)cc1 | > 60 µM | Active | Active | Active | – |
| [O-][S+](Cc1ccc(Br)cc1)c1cnc2ccccc2n1 (stereo not drawn) | > 60 µM | – | – | – | – |
| Cc1ccc(CS(=O)(=O)c2cnc3cc(Br)ccc3n2)cc1 | > 60 µM | – | – | – | – |
| Clc1ccc(CSc2cnc3cc(Cl)ccc3n2)cc1 | 53.8 µM | Active | Active | Active | – |
| Fc1ccc(CSc2cnc3cc(Br)ccc3n2)cc1 | 22.2 µM | Active | Active | Active | – |
| O=C(O)c1ccc(CSc2cnc3ccccc3n2)cc1 | > 60 µM | Active | Active | Active | – |
| Fc1ccc(CSc2cnc3ccccc3n2)cc1 | 58.8 µM | Active | Active | Active | – |
| Cc1ccc(CS(=O)(=O)c2cnc3ccccc3n2)cc1 | 36.5 µM | Active | Active | Active | IC50 [5]: 56.1 µM; Activity (HUVEC [14]): Active; Activity (Mus musculus [15]): 80%; Activity (Mus musculus [7]): Active; Activity (HUVEC [16]): Active |
| N#Cc1ccc(CSc2cnc3ccccc3n2)cc1 | 17.3 µM | Active | Active | Active | – |
| Cc1ccc(CS(=O)(=O)c2cnc3cc(Cl)ccc3n2)cc1 | 27.7 µM | – | – | – | – |
| O=C(O)c1ccc(CSc2cnc3cc(Br)ccc3n2)cc1 | > 60 µM | Active | Active | Active | – |
| Fc1ccc(CSc2cnc3cc(Cl)ccc3n2)cc1 | > 60 µM | – | – | – | – |
| N#Cc1ccc(CS(=O)(=O)c2cnc3cc(Cl)ccc3n2)cc1 | 4.8 µM | Active | Active | Active | – |
| Clc1ccc2nc(SCc3ccc(Br)cc3)cnc2c1 | > 60 µM | – | – | – | – |
| Brc1ccc(CSc2cnc3cc(Br)ccc3n2)cc1 | 4.58 µM | – | – | – | – |
| O=S(=O)(Cc1ccc(F)cc1)c1cnc2cc(Br)ccc2n1 | > 60 µM | – | – | – | – |
| O=S(=O)(Cc1ccc(Br)cc1)c1cnc2cc(Br)ccc2n1 | 21.7 µM | – | – | – | – |
| Cc1ccc(C[S+]([O-])c2cnc3cc(Cl)ccc3n2)cc1 (stereo not drawn) | 13 µM | – | – | – | – |
| Cc1ccc(CSc2cnc3cc(Cl)ccc3n2)cc1 | > 60 µM | Active | Active | Active | – |
| [O-][S+](Cc1ccc(Br)cc1)c1cnc2cc(Cl)ccc2n1 (stereo not drawn) | 12.9 µM | – | – | – | – |
| N#Cc1ccc(CSc2cnc3cc(Cl)ccc3n2)cc1 | > 60 µM | Active | Active | Active | – |
| Clc1ccc2nc(SCc3ccccc3)cnc2c1 | > 60 µM | Active | Active | Active | – |
